One compound from ChEMBL document CHEMBL1240397, “Amodiaquine dosage and tolerability for intermittent preventive treatment to prevent malaria in children” (Antimicrob Agents Chemother, 2010) can be followed below.

Common to all, as to type: organism-based
Common to all, as to settings: in vivo, po

In data set [1] the test system is Homo sapiens. The data set is described as follows: Toxicity in children with malaria assessed as incidence of vomiting at 15-17 mg/kg/day, perorally and cotreated with Sulfadoxine and pyrimethamine during intermittent preventive treatment to prevent malaria in children regimen.
Data set [2] concerns Homo sapiens. The data set is described as follows: Toxicity in children with malaria over 2 years of age assessed as incidence of itching at >=15 mg/kg/day, perorally co-treated with 500 mg sulfalene/25 mg pyrimethamine.
Data set [3] deals with Homo sapiens. The data set is described as follows: Toxicity in children with malaria assessed as incidence of rashes at 15-17 mg/kg/day, perorally and co-treated with sulfadoxine and pyrimethamine during intermittent preventive treatment to prevent malaria in children regimen.
For data set [4], the system named is Homo sapiens. The data set is described as follows: Toxicity in children with malaria assessed as febrile incidence at 15-17 mg/kg/day, perorally and co-treated with sulfadoxine and pyrimethamine during intermittent preventive treatment to prevent malaria in children regimen.
The test system of data set [5] is Homo sapiens. The data set is described as follows: Toxicity in children with malaria under 2 years of age assessed as incidence of itching administered with 250 mg sulfalene/12.5 mg pyrimethamine on first day followed by compound treatment at <=15 mg/kg/day, perorally.
Data set [6] relates to Homo sapiens. The data set is described as follows: Toxicity in children with malaria over 2 years of age assessed as incidence of rashes at >=15 mg/kg/day, perorally co-treated with 500 mg sulfalene/25 mg pyrimethamine.
Data set [7] concerns Homo sapiens. The data set is described as follows: Toxicity in children with malaria under 2 years of age assessed as incidence of rashes administered with 250 mg sulfalene/12.5 mg pyrimethamine on first day followed by compound treatment at <=15 mg/kg/day, perorally.
Data set [8] deals with Homo sapiens. The data set is described as follows: Toxicity in children with malaria assessed as febrile incidence at 17-19 mg/kg/day, perorally and cotreated with Sulfadoxine and pyrimethamine during intermittent preventive treatment to prevent malaria in children regimen.
Data set [9] deals with Homo sapiens. The data set is described as follows: Toxicity in children with malaria over 2 years of age assessed as incidence of vomiting at >=15 mg/kg/day, perorally co-treated with 500 mg sulfalene/25 mg pyrimethamine.
In data set [10] the test system is Homo sapiens. The data set is described as follows: Toxicity in children with malaria assessed as incidence of rashes at >19 mg/kg/day, perorally and co-treated with sulfadoxine and pyrimethamine during intermittent preventive treatment to prevent malaria in children regimen.
For data set [11], the system named is Homo sapiens. The data set is described as follows: Toxicity in children with malaria assessed as incidence of rashes at 17-19 mg/kg/day, perorally and cotreated with Sulfadoxine and pyrimethamine during intermittent preventive treatment to prevent malaria in children regimen.
Data set [12] deals with Homo sapiens. The data set is described as follows: Toxicity in children with malaria under 2 years of age assessed as incidence of headache administered with 250 mg sulfalene/12.5 mg pyrimethamine on first day followed by compound treatment at <=15 mg/kg/day, perorally.
Data set [13] concerns Homo sapiens. The data set is described as follows: Toxicity in children with malaria over 2 years of age assessed as incidence of headache at >=15 mg/kg/day, perorally co-treated with 500 mg sulfalene/25 mg pyrimethamine.
Data set [14] deals with Homo sapiens. The data set is described as follows: Toxicity in children with malaria over 2 years of age assessed as incidence of fever at >=15 mg/kg/day, perorally co-treated with 500 mg sulfalene/25 mg pyrimethamine.
The subject of data set [15] is Homo sapiens. The data set is described as follows: Toxicity in children with malaria assessed as febrile incidence at <15 mg/kg/day, perorally and co-treated with sulfadoxine and pyrimethamine during intermittent preventive treatment to prevent malaria in children regimen.
The test system of data set [16] is Homo sapiens. The data set is described as follows: Toxicity in children with malaria assessed as incidence of vomiting at <15 mg/kg/day, perorally and co-treated with sulfadoxine and pyrimethamine during intermittent preventive treatment to prevent malaria in children regimen.
Data set [17] concerns Homo sapiens. The data set is described as follows: Toxicity in children with malaria under 2 years of age assessed as incidence of vomiting administered with 250 mg sulfalene/12.5 mg pyrimethamine on first day followed by compound treatment at <=15 mg/kg/day, perorally.
The subject of data set [18] is Homo sapiens. The data set is described as follows: Toxicity in children with malaria assessed as incidence of rashes at <15 mg/kg/day, perorally and co-treated with sulfadoxine and pyrimethamine during intermittent preventive treatment to prevent malaria in children regimen.
Data set [19] concerns Homo sapiens. The data set is described as follows: Toxicity in children with malaria assessed as febrile incidence at >19 mg/kg/day, perorally and co-treated with sulfadoxine and pyrimethamine during intermittent preventive treatment to prevent malaria in children regimen.
Data set [20] relates to Homo sapiens. The data set is described as follows: Toxicity in children with malaria under 2 years of age assessed as incidence of fever administered with 250 mg sulfalene/12.5 mg pyrimethamine on first day followed by compound treatment at <=15 mg/kg/day, perorally.

For `CCN(CC)Cc1cc(Nc2ccnc3cc(Cl)ccc23)ccc1O.Cl`, the Activity came to 9.2% in the data set with Homo sapiens [1]; 3.8% in the data set on Homo sapiens [2]; 0% in the data set on Homo sapiens [3]; 10.7% with Homo sapiens [4]; 1.9% in the data set on Homo sapiens [5]; 1.9% with Homo sapiens [6]. Moreover, the Activity is listed as 1.9% in the data set with Homo sapiens [7]; 9.9% in the data set with Homo sapiens [8]; 41.3% with Homo sapiens [9]; 2.2% in the data set with Homo sapiens [10]; 0.8% in the data set on Homo sapiens [11]; 9.6% in the data set on Homo sapiens [12]. Besides, the Activity in the data set with Homo sapiens [13] was determined as 5.8%; with Homo sapiens [14], 29.8%; with Homo sapiens [15] it was 6.3%; in the data set on Homo sapiens [16], 7%; in the data set with Homo sapiens [17], 26.4%; in the data set on Homo sapiens [18], 0.8%. The Activity in the data set on Homo sapiens [19] was determined as 21.7%; in the data set on Homo sapiens [20], 26.4%.
